Test [1] has as its target Adenosine receptor A2a (Homo sapiens) (UniProt P29274). To be noted: Compound concentration 10.0 uM.
In test [2] the target is Protein kinase C beta type (Homo sapiens) (UniProt P05771). The test can be described thus: PKCbetaII (h) Millipore kinase activity assay. To be noted: Compound concentration 1.0 uM.
The target of test [3] is Beta-2 adrenergic receptor (Homo sapiens) (UniProt P07550). The settings on record: Compound concentration 10.0 uM.
In test [4] the target is Serine/threonine-protein kinase TAO2 (Homo sapiens) (UniProt Q9UL54). The test can be described thus: TAO2 (h) Millipore kinase activity assay. To be noted: Compound concentration 1.0 uM.
Test [5] concerns the target Sigma non-opioid intracellular receptor 1 (Homo sapiens) (UniProt Q99720). The test can be described thus: Inhibition of Sigma 1 at 10 µM in the Eurofins-Panlabs radioligand binding assay (Eurofins_assay_278110). Also noted: ligand concentration 8 nM. The settings on record: Compound concentration 10.0 uM.
For test [6], the target named is Serine/threonine-protein kinase 24 (Homo sapiens) (UniProt Q9Y6E0). The experiment in a line: MST3 (h) Millipore kinase activity assay. To be noted: Compound concentration 1.0 uM.
Test [7] has as its target T1, Muscarinic acetylcholine receptor M2 (Homo sapiens) (UniProt P08172).
T1 sequence (whole entry): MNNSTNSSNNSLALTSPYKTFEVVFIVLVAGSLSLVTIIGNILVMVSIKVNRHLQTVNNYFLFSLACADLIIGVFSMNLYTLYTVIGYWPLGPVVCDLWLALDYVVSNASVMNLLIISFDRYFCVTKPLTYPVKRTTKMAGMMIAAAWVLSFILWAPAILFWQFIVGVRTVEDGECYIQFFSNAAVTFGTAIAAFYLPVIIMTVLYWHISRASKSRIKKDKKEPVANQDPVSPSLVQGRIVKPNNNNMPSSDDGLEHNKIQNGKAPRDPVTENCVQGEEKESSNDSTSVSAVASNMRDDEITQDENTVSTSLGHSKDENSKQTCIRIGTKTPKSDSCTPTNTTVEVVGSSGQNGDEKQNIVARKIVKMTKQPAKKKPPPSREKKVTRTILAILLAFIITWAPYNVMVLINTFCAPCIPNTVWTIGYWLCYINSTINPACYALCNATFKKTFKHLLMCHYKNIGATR
The settings on record: Compound concentration 10.0 uM.

Test [8] addresses Serine/threonine-protein kinase haspin (Homo sapiens) (UniProt Q8TF76). The test can be described thus: Haspin (h) Millipore kinase activity assay. To be noted: Compound concentration 1.0 uM.
The target of test [9] is G protein-coupled receptor kinase 5 (Homo sapiens) (UniProt P34947). The experiment in a line: GRK5 (h) Millipore kinase activity assay. To be noted: Compound concentration 1.0 uM.
In test [10] the target is Serine/threonine-protein kinase PLK2 (Homo sapiens) (UniProt Q9NYY3). The experiment in a line: Snk (h) Millipore kinase activity assay. To be noted: Compound concentration 1.0 uM.
Test [11] concerns the target Mitogen-activated protein kinase 8 (Homo sapiens) (UniProt P45983). The test can be described thus: JNK1alpha1 (h) Millipore kinase activity assay. The settings on record: Compound concentration 1.0 uM.
In test [12] the target is Fibroblast growth factor receptor 4 (Homo sapiens) (UniProt P22455). The test can be described thus: FGFR4 (h) Millipore kinase activity assay. The settings on record: Compound concentration 1.0 uM.
In test [13] the target is D(2) dopamine receptor (Homo sapiens) (UniProt P14416). To be noted: Compound concentration 10.0 uM.
Test [14] addresses Tyrosine-protein kinase Lyn (Homo sapiens) (UniProt P07948). The experiment in a line: Lyn (h) Millipore kinase activity assay. To be noted: Compound concentration 1.0 uM.
For test [15], the target named is Serine/threonine-protein kinase pim-2 (Homo sapiens) (UniProt Q9P1W9). The test can be described thus: Pim-2 (h) Millipore kinase activity assay. To be noted: Compound concentration 1.0 uM.
In test [16] the target is Muscarinic acetylcholine receptor M3 (Homo sapiens) (UniProt P20309). To be noted: Compound concentration 10.0 uM.
The target in test [17] is Epidermal growth factor receptor (Homo sapiens) (UniProt P00533). The experiment in a line: Inhibition of Epidermal Growth Factor (EGF) at 10 µM in the Eurofins-Panlabs radioligand binding assay (Eurofins_assay_225510). The settings on record: Compound concentration 10.0 uM.
Test [18] deals with B1 bradykinin receptor (Homo sapiens) (UniProt P46663). The experiment in a line: Inhibition of Bradykinin B1 at 10 µM in the Eurofins-Panlabs radioligand binding assay (Eurofins_assay_212510). The settings on record: Compound concentration 10.0 uM.
For test [19], the target named is Mitogen-activated protein kinase kinase kinase 3 (Homo sapiens) (UniProt Q99759). The settings on record: Compound concentration 1000.0 nM.
The target of test [20] is Serine/threonine-protein kinase PAK 3 (Homo sapiens) (UniProt O75914). To be noted: Compound concentration 1000.0 nM.
Test [21] has as its target Ribosomal protein S6 kinase alpha-4 (Homo sapiens) (UniProt O75676). The settings on record: Compound concentration 1000.0 nM.
The target of test [22] is Ephrin type-A receptor 2 (Homo sapiens) (UniProt P29317). The settings on record: Compound concentration 1000.0 nM.
Test [23] concerns the target Serine/threonine-protein kinase ULK2 (Homo sapiens) (UniProt Q8IYT8). The settings on record: Compound concentration 1000.0 nM.
For test [24], the target named is Serine/threonine-protein kinase TBK1 (Homo sapiens) (UniProt Q9UHD2). The settings on record: Compound concentration 1000.0 nM.
Test [25] deals with Dual specificity testis-specific protein kinase 1 (Homo sapiens) (UniProt Q15569). To be noted: Compound concentration 1000.0 nM.
In test [26] the target is Cyclin-dependent kinase 8 (Homo sapiens) (UniProt P49336). The settings on record: Compound concentration 1000.0 nM.
For test [27], the system named is Tyrosine-protein kinase ABL1 (Homo sapiens), P00519 [Q252H]. The settings on record: Compound concentration 1000.0 nM.
For test [28], the target named is Tyrosine-protein kinase receptor Tie-1 (Homo sapiens) (UniProt P35590). The settings on record: Compound concentration 1000.0 nM.
Test [29] concerns the target Mast/stem cell growth factor receptor Kit (Homo sapiens) (UniProt P10721). The settings on record: Compound concentration 1000.0 nM.
In test [30] the target is Cyclin-dependent kinase 9 (Homo sapiens) (UniProt P50750). To be noted: Compound concentration 1000.0 nM.
The target of test [31] is Ribosomal protein S6 kinase alpha-4 (Homo sapiens) (UniProt O75676). The settings on record: Compound concentration 1000.0 nM. This is another data set of the same source.
Test [32] concerns the target Ribosomal protein S6 kinase beta-1 (Homo sapiens) (UniProt P23443). The settings on record: Compound concentration 1000.0 nM.
In test [33] the test system is Receptor-type tyrosine-protein kinase FLT3 (Homo sapiens), P36888 [N841I]. To be noted: Compound concentration 1000.0 nM.
The target of test [34] is Cyclin-dependent kinase 11A (Homo sapiens) (UniProt Q9UQ88). To be noted: Compound concentration 1000.0 nM.
In test [35] the target is Insulin-like growth factor 1 receptor (Homo sapiens) (UniProt P08069). To be noted: Compound concentration 1000.0 nM.
Test [36] has as its target 5-hydroxytryptamine receptor 6 (Homo sapiens, UniProt P50406). The experiment in a line: GPCRScan assay: inhibition of 5-HT6. Also noted: radioligand conc. used [nm] 2.0 – 4.0, parental cells stable HEK.
The target in test [37] is RAC-beta serine/threonine-protein kinase (Homo sapiens) (UniProt P31751). The settings on record: Compound concentration 1000.0 nM.
Test [38] concerns the target Calcium/calmodulin-dependent protein kinase kinase 2 (Homo sapiens) (UniProt Q96RR4). To be noted: Compound concentration 1000.0 nM.
Test [39] concerns the target Serine/threonine-protein kinase WNK3 (Homo sapiens) (UniProt Q9BYP7). To be noted: Compound concentration 1000.0 nM.

This is an account of results in ChEMBL document CHEMBL4507263, “Data for DCP probe BAY-474” (2021).

Ribosomal protein S6 kinase alpha-4 (Homo sapiens), sequence (O75676 whole entry, looked up): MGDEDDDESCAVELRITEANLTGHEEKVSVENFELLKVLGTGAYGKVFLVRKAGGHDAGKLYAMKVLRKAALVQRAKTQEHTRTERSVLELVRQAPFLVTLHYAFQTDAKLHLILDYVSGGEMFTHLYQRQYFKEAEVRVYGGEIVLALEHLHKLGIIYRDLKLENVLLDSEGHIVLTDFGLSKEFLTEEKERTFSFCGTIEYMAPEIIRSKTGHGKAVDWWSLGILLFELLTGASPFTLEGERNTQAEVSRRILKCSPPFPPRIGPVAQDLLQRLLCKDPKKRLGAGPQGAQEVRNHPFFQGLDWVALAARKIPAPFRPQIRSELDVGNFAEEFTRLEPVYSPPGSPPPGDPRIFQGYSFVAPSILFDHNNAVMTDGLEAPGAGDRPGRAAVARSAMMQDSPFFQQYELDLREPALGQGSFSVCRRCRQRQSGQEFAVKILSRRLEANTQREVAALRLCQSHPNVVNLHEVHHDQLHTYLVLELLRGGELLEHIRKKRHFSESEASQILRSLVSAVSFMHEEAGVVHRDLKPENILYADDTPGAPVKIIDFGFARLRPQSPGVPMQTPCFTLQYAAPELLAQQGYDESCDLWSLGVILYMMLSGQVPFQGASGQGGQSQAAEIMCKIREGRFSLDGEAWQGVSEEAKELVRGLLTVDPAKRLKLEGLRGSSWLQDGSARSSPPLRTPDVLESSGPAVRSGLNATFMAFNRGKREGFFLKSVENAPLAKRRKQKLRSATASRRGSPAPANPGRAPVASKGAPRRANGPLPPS
Cyclin-dependent kinase 8 (Homo sapiens), sequence (P49336 whole entry): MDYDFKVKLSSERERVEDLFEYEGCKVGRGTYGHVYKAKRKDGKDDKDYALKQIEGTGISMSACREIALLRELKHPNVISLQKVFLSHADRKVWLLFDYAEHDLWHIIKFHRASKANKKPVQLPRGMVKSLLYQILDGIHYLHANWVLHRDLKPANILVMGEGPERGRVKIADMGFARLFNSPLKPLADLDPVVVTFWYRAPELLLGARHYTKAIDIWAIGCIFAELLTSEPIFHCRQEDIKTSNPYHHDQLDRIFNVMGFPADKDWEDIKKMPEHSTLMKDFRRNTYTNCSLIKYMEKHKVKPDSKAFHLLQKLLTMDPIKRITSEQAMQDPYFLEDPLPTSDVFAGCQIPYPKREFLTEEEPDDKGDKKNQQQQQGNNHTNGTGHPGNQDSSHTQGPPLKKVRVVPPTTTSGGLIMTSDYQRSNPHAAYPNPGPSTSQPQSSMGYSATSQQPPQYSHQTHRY
D(2) dopamine receptor (Homo sapiens), sequence (P14416 whole entry): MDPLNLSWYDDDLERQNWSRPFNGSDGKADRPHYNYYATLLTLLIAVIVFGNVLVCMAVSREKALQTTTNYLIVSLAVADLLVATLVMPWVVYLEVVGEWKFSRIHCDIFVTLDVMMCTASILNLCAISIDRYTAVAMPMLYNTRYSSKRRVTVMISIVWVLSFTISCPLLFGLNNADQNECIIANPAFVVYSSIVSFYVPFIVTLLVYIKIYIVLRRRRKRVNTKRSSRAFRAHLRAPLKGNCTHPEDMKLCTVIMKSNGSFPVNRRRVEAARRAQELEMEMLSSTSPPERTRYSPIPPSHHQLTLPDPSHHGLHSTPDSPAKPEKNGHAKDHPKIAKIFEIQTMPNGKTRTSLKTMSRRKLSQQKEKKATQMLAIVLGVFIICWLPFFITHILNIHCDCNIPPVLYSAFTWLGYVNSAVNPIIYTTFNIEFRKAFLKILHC
Beta-2 adrenergic receptor (Homo sapiens), sequence (P07550 whole entry, looked up): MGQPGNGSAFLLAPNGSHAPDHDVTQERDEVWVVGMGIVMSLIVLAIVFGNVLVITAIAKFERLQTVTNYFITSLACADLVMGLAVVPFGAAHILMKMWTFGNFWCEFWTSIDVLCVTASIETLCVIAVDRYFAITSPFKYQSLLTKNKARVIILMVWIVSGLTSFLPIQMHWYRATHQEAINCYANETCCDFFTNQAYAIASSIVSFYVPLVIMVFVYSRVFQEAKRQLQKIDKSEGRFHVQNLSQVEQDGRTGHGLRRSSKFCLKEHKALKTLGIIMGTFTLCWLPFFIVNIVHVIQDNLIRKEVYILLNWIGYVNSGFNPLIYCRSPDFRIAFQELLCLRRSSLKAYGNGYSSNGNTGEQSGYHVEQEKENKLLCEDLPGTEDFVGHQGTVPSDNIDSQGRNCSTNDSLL
Sigma non-opioid intracellular receptor 1 (Homo sapiens), sequence (Q99720 whole entry): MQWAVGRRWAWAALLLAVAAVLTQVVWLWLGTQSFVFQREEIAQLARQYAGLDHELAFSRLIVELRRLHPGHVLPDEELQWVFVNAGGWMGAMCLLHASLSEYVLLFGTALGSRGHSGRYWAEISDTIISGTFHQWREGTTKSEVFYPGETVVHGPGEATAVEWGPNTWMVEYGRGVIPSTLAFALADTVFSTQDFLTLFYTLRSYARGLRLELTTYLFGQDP
Serine/threonine-protein kinase PLK2 (Homo sapiens), sequence (Q9NYY3 whole entry, looked up): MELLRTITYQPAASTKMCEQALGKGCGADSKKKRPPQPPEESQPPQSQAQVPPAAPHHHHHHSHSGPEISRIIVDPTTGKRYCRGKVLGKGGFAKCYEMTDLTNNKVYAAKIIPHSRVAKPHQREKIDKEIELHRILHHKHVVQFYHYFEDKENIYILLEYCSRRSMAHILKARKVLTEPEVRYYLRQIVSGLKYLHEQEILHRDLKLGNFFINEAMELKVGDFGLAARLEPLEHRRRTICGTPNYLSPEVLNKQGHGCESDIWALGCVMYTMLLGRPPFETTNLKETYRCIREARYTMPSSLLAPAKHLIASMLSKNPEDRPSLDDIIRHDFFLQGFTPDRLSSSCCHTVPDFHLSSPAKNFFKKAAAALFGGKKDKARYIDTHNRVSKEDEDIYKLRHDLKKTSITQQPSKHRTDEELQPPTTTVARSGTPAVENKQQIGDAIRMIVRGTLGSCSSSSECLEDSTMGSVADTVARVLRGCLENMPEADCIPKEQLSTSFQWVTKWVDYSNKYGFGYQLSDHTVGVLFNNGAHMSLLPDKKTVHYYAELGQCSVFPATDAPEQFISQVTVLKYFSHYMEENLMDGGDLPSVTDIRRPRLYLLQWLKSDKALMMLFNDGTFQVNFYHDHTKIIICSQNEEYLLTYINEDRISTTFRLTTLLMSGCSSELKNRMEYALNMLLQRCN
G protein-coupled receptor kinase 5 (Homo sapiens), sequence (P34947 whole entry, looked up): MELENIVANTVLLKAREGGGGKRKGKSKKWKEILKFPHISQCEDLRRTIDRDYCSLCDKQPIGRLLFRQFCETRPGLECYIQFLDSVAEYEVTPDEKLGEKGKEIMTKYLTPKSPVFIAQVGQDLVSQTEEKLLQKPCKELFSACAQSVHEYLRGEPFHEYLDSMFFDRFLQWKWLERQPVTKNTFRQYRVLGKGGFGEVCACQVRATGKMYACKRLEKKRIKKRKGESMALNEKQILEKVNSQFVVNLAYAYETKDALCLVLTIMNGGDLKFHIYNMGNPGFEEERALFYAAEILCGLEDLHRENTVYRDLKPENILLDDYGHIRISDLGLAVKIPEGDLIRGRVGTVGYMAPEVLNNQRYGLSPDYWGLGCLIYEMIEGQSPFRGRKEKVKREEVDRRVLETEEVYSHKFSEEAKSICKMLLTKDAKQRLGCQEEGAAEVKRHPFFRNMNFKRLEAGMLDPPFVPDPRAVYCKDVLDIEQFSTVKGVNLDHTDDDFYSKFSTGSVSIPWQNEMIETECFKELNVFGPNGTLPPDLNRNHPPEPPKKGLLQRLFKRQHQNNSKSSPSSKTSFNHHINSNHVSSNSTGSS
Mast/stem cell growth factor receptor Kit (Homo sapiens), sequence (P10721 whole entry): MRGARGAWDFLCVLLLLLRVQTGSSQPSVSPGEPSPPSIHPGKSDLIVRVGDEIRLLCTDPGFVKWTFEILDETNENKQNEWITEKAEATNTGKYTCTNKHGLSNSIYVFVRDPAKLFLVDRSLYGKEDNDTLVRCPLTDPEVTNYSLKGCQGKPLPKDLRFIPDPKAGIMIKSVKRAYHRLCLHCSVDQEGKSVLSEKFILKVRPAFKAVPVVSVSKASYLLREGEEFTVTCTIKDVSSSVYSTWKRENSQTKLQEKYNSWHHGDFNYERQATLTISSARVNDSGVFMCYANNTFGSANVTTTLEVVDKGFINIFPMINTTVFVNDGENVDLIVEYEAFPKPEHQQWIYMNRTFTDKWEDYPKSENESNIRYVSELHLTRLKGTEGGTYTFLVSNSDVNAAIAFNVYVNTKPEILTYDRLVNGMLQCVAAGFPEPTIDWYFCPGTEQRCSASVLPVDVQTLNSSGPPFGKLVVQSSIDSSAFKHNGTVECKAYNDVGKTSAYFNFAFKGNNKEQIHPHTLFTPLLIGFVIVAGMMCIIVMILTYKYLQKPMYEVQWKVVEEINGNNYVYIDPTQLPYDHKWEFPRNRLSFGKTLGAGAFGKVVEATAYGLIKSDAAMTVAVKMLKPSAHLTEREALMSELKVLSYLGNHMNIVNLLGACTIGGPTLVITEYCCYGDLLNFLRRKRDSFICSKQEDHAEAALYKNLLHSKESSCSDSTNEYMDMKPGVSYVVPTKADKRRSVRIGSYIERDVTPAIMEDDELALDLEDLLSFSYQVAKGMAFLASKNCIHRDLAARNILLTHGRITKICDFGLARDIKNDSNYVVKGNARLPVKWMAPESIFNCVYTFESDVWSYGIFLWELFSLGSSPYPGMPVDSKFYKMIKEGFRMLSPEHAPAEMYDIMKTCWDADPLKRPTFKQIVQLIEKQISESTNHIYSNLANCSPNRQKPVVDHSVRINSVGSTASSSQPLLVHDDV
Mitogen-activated protein kinase 8 (Homo sapiens), sequence (P45983 whole entry): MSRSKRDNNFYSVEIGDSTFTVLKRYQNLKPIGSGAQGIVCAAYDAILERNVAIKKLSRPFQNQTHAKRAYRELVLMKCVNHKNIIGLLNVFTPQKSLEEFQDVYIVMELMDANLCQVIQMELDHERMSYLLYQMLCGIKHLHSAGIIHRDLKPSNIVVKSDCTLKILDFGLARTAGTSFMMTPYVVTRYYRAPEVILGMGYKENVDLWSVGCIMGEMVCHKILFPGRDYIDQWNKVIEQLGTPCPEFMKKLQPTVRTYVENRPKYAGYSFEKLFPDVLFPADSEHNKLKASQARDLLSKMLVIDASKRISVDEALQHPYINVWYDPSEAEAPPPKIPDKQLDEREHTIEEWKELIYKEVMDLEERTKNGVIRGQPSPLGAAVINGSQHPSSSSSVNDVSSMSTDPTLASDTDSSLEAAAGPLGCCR

Turning to `CC1=C(C#N)C(c2ccc3[nH]nc(C)c3c2)C(C#N)=C(C)N1` [BAY-474], the inhibition (in general, the change of the read-out against control, counted positive when it falls) is 7% in test [1]; 7% in [2]; 4% in test [3]; -2% in test [4]; -7% in test [5]; 10% in test [6]. Also, the inhibition in test [7] is 0%; in test [8] it was 2%; in test [9], 0%; in test [10], 3%; in test [11], -8%; in test [12], 18%. In addition, the inhibition in test [13] was 2%; in test [14] it was -1%; in test [15], -3%; in test [16] it was 2%; in test [17], 7%; in test [18] it was 6%.
Take `CC1=C(C#N)[C@@H](c2ccc3[nH]nc(C)c3c2)C(C#N)=C(c2ccc(Cl)cc2)N1` [BAY-827]: the residual activity in [19] was 100%; in [20], 100%; in test [21] it was 100%; in test [22], 100%; in test [23], 100%; in test [24], 58.7%. Also, the residual activity in test [25] is 100%; in test [26] it was 93.2%; in test [27], 43.8%; in test [28] it was 76.4%; in test [29], 95.4%; in [30], 96.9%. Besides, the residual activity in test [31] is 81.4%; in test [32], 62.2%; in test [33], 100%; in [34] it was 90%; in [35], 100%; in test [37], 100%. In addition, the residual activity in test [38] is 86.5%; in test [39] it was 100%. Further, the Ki (commonly the dissociation constant of the complex between target and ligand, obtained from inhibition or displacement) in test [36] came to 674 nM.
